Measurements taken from patent US12269804B2, “Quinoxalinone compounds, compositions, methods, and kits for increasing genome editing efficiency” (VERTEX PHARMACEUTICALS INCORPORATED, priority 2018, dated 2025).
Where two headings read alike, the source gives them in different places.

Tests used:
Assay type in all cases: cell-based, human
[1] = tested on: Bronchial Epithelial Cells (BECs), NAV1.7; test: Gene editing rates (TIDE assay) in BECs electroporated with spCAS9 mRNA, NAV1.7 sgRNA and NAV1.7 Non-PAM ssODN
Experimental: (§1) Bronchial Epithelial Cells (BECs) were derived from human donors diagnosed with Cystic Fibrosis with a CFTR dF508/dF508 genotype.
(§2) For BECs, the following conditions were used for electroporation: 1.8×E5 Cells, 250 ng of CAS9 mRNA, 500 ng of sgRNA and 0.66 μM of ssODN in 20 μl of P4 Electroporation buffer by using program CM-138. The electroporated cells were transferred to a 96 well plate containing 100 μl of BEC culture media supplemented with DNA-PK inhibitors or left untreated. Cells were incubated at 37° C. in a 5% CO2 incubator.
(§3) Genomic DNA was isolated by incubating cells with 50 μl DNA Quickextract solution (Epicentre) per well of 96 well plate for 30 min at 37° C. Cellular extract was mixed and transferred into a PCR plate and then incubated for 6 min at 65° C. and 2 min at 98° C. PCR reactions were carried out with 1 μl of Genomic DNA containing solution by using AccuPrime™ Pfx DNA Polymerase (Thermofisher, 12344024). PCR conditions were 4 min at 94° C. (1×), followed by 15 s at 94° C., 15 s at 60° C. and 1 min at […] (40×). The PCR products were purified and then Sanger sequenced by GENEWIZ. The following primer pairs spanning the target site were used for PCR (FW, forward; RV, reverse). Primers used by Sanger Sequencing are indicated by an asterisk (*): […]
(§4) Each sequence chromatogram was analyzed using TIDE (Tracking of Indels by Decomposition) software (http://tide.nki.nl) (See also Brinkman et al., Nucleic Acids Research, Volume 42, Issue 22, 16 Dec. 2014, Pages e168). Mock-electroporated samples were used as the reference sequence, and parameters were set to an indel size of 30 nt, and the decomposition window was set to cover the largest possible window with high-quality traces. Total indel (insertion and deletions) rates were obtained directly from TIDE plots. HDR rates were the percentage of events with an insertion of 10 Nucleotides. NHEJ Rates were calculated as Total Indel rate—HDR rate. GraphPad Prism 7 software was used to make Graphs and to calculate the all Statistical information.
(§5) FIG. 1 illustrates the design of the gene editing assays used in the examples below. To investigate the effect of DNA-PK inhibitors on HDR gene editing rates, BECs were electroporated with spCAS9 mRNA, NAV1.7 sgRNA and NAV1.7 Non-PAM ssODN and then incubated with different concentrations Compound 1 or left untreated (Control). Gene editing rates were determined by using TIDE assay 72 hs after electroporation. Gene editing rates were expressed in percentages and classified as HDR and NHEJ. Cell survival rates are shown in percentages where control cells were set as 100%.

[2] = tested on: Bronchial Epithelial Cells (BECs), AAVS1; test: Gene editing rates (TIDE assay) in BECs electroporated with spCAS9 mRNA, AAVS1 sgRNA and AAVS1 PAM ssODN
Experimental: as §1, §2
as §3, with “reverse).” for “reverse). Primers used by Sanger Sequencing are indicated by an asterisk (*):”
(§6) Each sequence chromatogram was analyzed using TIDE (Tracking of Indels by Decomposition) software (http://tide.nki.nl) (See also Brinkman et al., Nucleic Acids Research, Volume 42, Issue 22, 16 Dec. 2014, Pages e168). […] NHEJ Rates were calculated as Total Indel rate—HDR rate. […]
To investigate the gene editing kinetics at EC max, BECs were electroporated with spCAS9 mRNA, AAVS1 sgRNA and AAVS1 PAM ssODN and then incubated at different times with 10 μM Compound 1 or left untreated (Control). Gene editing rates were determined by using TIDE assay and expressed in percentages of HDR and NHEJ. […]
BECs were electroporated with spCAS9 mRNA, AAVS1 sgRNA and AAVS1 PAM ssODN and then incubated at different times with 0.7 μM Compound 1 or left untreated (Control). Gene editing rates were determined by using TIDE assay and expressed in percentages of HDR and NHEJ. […]

[3] = tested on: Induced Pluripotent Stem Cells (iPSCs), AAVS1; test: Gene editing rates (TIDE assay) in iPSCs electroporated with spCAS9 mRNA, AAVS1 sgRNA and AAVS1 PAM ssODN
Experimental: Induced Pluripotent Stem Cells (iPSCs) were derived from Human dermal fibroblasts after viral transduction with Yamanaka's reprogramming factors, Oct4, Sox2, KLF4 and c-Myc. Derived iPSCs were able to differentiate into 3 germ layers and contained a normal karyotype with 23 pairs of Chromosomes.
For iPSCs the following conditions were used: 2.0×E5 Cells, 250 ng of CAS9 mRNA, 500 ng of sgRNA and 0.66 μM of ssODN in 20 μl of P3 Electroporation buffer by using program CA-137. The electroporated cells were transferred to a 96 well plate containing 100 μl of mTEsR1 media (Stem Cell Technologies) supplemented with 10 μM ROCK Inhibitor Y-27632 (Stem Cell Technologies) with or without DNA-PK inhibitors and then incubated at 37° C. in a 5% CO2 incubator.
as §3, §4
as §5, with “To” for “FIG. 1 illustrates the design of the gene editing assays used in the examples below. To”, “iPSCs” for “BECs”, “AAVS1” for “NAV1.7”, “AAVS1 PAM” for “NAV1.7 Non-PAM”, “concentrations of” for “concentrations”

[4] = tested on: mPB CD34+ cells, NAV1.7; test: Gene editing rates (TIDE assay) in mPB CD34+ cells electroporated with RNP (spCAS9 protein+NAV1.7 sgRNA) and NAV1.7 Non-PAM ssODN; settings: for EC50: Homo sapiens
Experimental: (§7) Primary human mobilized peripheral blood (mPB) CD34^+ hematopoietic stem and progenitor cells (HSPCs) were purchased from Hemacare or AllCells. Cells were thawed, washed and resuspended in complete medium comprised of serum free medium CellGro SCGM (CellGenix) and supplemented with cytokine mix (300 ng/mL SCF, 300 ng/mL Flt3L, 100 ng/mL TPO, 60 ng/ml IL-3) at a density of 1-3×10^5 cells per mL and incubated at 37° C./5% CO2 incubator for 48 hours prior to electroporation.
(§8) CD34+ cells were electroporated two days post thaw. The following conditions were used for electroporation: 2.0×E6 cells, 15 μg Cas9 protein (Feldan), 15 μg sgRNA, 1 μM of ssODN in 100 μl of P3 electroporation buffer using program CA-137. Electroporated cells were transferred by equally dividing them into eight wells of a 24-well plate, each well containing various concentrations of DNA-PK inhibitors. Cells were incubated at 37° C. in a 5% CO2 incubator for two days and evaluated for cell viability and gene editing.
as §3, §4
To investigate the effect of DNA-PK inhibitors on HDR gene editing rates, mPB CD34+ cells were electroporated with RNP (spCAS9 protein+NAV1.7 sgRNA) and NAV1.7 Non-PAM ssODN. Cells were then incubated with various concentrations of Compound 1. Gene editing rates were determined by using TIDE assay 48 h after electroporation. Gene editing rates were expressed in percentages and classified as HDR and NHEJ as shown in FIG. 3A (Donor B) and FIG. 3B (Donor C. Cell survival rates are shown in percentages where control cells were set as 100%.

[5] = tested on: CD34+ cells, AAVS1; test: HDR gene editing in CD34+ cells at AAVS1 (Summary Table); settings: for EC50: Homo sapiens
Experimental: as §7, §8, §3, §4

[6] = tested on: Bronchial Epithelial Cells (BECs), AAVS1; test: HDR rates in BECs, gene editing components delivered by lipid-mediated transfection (AAVS1); settings: AAVS1, lipid-based transfection, 72 hs after transfection
Experimental: as §1
One day prior to transfection, BECs were seeded in a 96-well plate at a cell density of 1×E4 cells per well in BECs culture media. First, 0.15 μl of MessengerMax (ThermoFisher, LMRNA 003) was diluted into 5 μl of Opti-MEM and incubated for 10 min at room temperature. Meanwhile, 80 ng of Cas9 mRNA (Trilink, L-7206), 20 ng of sgRNA (Synthego) and 1 picomol of ssODN were added to 5 μl of Opti-MEM and then mixed with MessengerMAx solution. The mixture was incubated for 5 min prior to addition to the cells. The entire solution was added to the cells in a well of 96-well plate with 100 μl of culture media with or without DNA-PK inhibitors. Cells were incubated at 37° C. for in a 5% CO2 incubator. […]
as §6
To investigate the effects of lipid-mediated transfection, BEC were transfected with spCAS9 mRNA, AAVS1 sgRNA and AAVS1 PAM ssODN and then incubated with different concentration of Compound 1 or left untreated (Control). Gene editing rates were determined by using TIDE assay 72 hs after transfection.

Work on Cn1c(=O)cnc2cc(N3CCOCC3)cc(O[C@H]3CC[C@@H](Nc4ncccn4)CC3)c21 [Compound 1, 1-methyl-6-morpholino-8-(((1,4-cis)-4-(pyrimidin-2-ylamino)cyclohexyl)oxy)quinoxalin-2(1H)-one] yielded an EC50 ([1]; Homo sapiens, Epithelial cell, NAV1.7, TIDE assay 72 hs after electroporation, read-out: HDR EC50) of 445 nM, an IC50 ([1]; Homo sapiens, Epithelial cell, NAV1.7, TIDE assay 72 hs after electroporation, read-out: NHEJ IC50) of 445 nM and an EC50 ([1]; Homo sapiens, Epithelial cell, NaV1.7, read-out: HDR EC50) of 720 nM. For the same compound, the “HDR TOP %” value ([1]; NAV1.7, TIDE assay 72 hs after electroporation) was 69.37%, the “HDR Max %” value ([1]; NaV1.7) was 69% and the “HDR Max %” value [2] was 66%. The “Maximum Enhance Concentration (ECmax)” value [2] was 10 µM, the EC50 ([2]; Homo sapiens, Epithelial cell, read-out: Enhance Concentration 50 (EC50)) was 700 nM and the “HDR Max %” value ([3]; AAVS1) was 24%. The “HDR TOP %” value ([3]; AAVS1, TIDE assay 72 hs after electroporation) was 24.41%, the EC50 ([3]; Homo sapiens, iPSC, AAVS1, TIDE assay 72 hs after electroporation, read-out: HDR EC50) was 325 nM and the IC50 ([3]; Homo sapiens, iPSC, AAVS1, TIDE assay 72 hs after electroporation, read-out: NHEJ IC50) was 474 nM. The EC50 ([3]; Homo sapiens, iPSC, AAVS1, read-out: HDR EC50) was 330 nM, the “HDR Max %” value ([4]; CD34+, Donor A, NaV1.7) was 82% and the “HDR Max %” value ([4]; CD34+, Donor B, NaV1.7) was 86%. The “HDR Max %” value ([4]; CD34+, Donor C, NaV1.7) was 67%, the EC50 ([4]; 48 h, CD34+ cells, Donor B, NAV1.7, 48 h after electroporation, read-out: EC50 of HDR) was 290 nM and the EC50 ([4]; 48 h, CD34+ cells, Donor B, NAV1.7, 48 h after electroporation, read-out: EC50 of Indel formation) was 350 nM. The EC50 ([4]; CD34+, Donor A, NaV1.7, read-out: HDR EC50) was 390 nM, the EC50 ([4]; CD34+, Donor B, NaV1.7, read-out: HDR EC50) was 290 nM and the EC50 ([4]; CD34+, Donor C, NaV1.7, read-out: HDR EC50) was 110 nM. The “HDR Max %” value ([5]; Donor A) was 76%, the “HDR Max %” value ([5]; Donor C) was 88% and the EC50 ([5]; Donor A) was 120 nM. For the same compound, the EC50 ([5]; Donor C) was 180 nM and the HDR efficiency rates [6] was “increasing HDR efficiency rates with increasing concentrations”.
